According to patent US9040519B2, “Fused tetracyclic pyrido [4,3-B] indole and pyrido [3,4-B] indole derivatives and methods of use” (Medivation Technologies, Inc., priority 2010, dated 2015):

Tests used:
[1] = target: T1, human recombinant histamine H1 receptor (Homo sapiens, UniProt P35367); assay: Histamine H1 radioligand binding ([3H]Pyrilamine); conditions: compound at 0.1 μM; 1.2 nM [3H]Pyrilamine; CHO K1 cells; read-out: Histamine H1 Binding (0.1 μM), percentage inhibition
T1 construct: expressed in transfected cells; host or cells: CHO-K1
T1 sequence (P35367 whole entry): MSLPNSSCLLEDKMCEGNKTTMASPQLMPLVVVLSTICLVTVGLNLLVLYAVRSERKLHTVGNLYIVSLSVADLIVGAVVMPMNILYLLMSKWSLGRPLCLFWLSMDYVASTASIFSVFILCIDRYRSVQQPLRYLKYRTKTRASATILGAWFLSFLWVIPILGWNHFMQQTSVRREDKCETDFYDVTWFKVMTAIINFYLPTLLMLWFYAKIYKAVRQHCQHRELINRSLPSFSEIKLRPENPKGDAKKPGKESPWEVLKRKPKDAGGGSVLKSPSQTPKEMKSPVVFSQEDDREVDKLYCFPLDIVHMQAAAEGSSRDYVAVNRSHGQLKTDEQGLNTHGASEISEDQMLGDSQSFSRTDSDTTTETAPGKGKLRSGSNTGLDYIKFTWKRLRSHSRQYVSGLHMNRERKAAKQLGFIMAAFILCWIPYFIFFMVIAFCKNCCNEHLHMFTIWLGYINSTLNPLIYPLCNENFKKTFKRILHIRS
Procedure: To evaluate in radioligand binding assays the activity of compounds of the invention, human recombinant histamine H1 receptor expressed in Chinese hamster ovary (CHO) K1 cells (De Backer, M. et al, Biochem. Biophys. Res. Comm. 197(3):1601, 1993) in a modified Tris-HCl buffer (50 mM Tris-HCl, pH 7.4, 2 mM MgCl2, 100 mM NaCl, 250 mM Sucrose) was used. Compounds of the invention were incubated with 1.2 nM [^3H]Pyrilamine for 180 min at 25° C. Non-specific binding was estimated in the presence of 1 μM Pyrilamine. Receptor proteins were filtered and washed, the filters were then counted to determine [^3H]Pyrilamine specifically bound. Compounds were screened at 1 μM or lower, using 1% DMSO as vehicle. Biochemical assay results are presented as the percent inhibition of specific binding in Table 2.

[2] = target: T2, human recombinant serotonin (5-Hydroxytryptamine) 5-HT2A receptor (Homo sapiens, UniProt P28223); assay: Serotonin 5-HT2A radioligand binding ([3H]Ketanserin); conditions: compound at 0.1 μM; CHO K1 cells; read-out: Percentage inhibition of ligand binding, Serotonin 5-HT2A
T2 construct: expressed in transfected cells; host or cells: CHO-K1
T2 sequence (P28223 whole entry): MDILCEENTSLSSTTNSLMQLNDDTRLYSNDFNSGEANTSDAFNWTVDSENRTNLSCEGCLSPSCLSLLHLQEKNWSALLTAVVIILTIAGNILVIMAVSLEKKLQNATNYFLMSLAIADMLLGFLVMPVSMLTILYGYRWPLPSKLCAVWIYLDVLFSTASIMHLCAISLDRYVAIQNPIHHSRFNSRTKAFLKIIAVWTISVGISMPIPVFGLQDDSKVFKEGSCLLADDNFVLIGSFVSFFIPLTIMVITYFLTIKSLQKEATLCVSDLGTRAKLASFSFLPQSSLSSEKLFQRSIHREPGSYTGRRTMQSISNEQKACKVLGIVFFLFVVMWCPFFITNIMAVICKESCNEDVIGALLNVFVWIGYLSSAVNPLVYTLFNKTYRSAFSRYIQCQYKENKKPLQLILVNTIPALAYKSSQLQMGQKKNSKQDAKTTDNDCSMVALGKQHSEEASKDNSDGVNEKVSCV
Procedure: To evaluate in radioligand binding assays the activity of compounds of the invention, human recombinant serotonin (5-Hydroxytryptamine) 5-HT2A receptor expressed in Chinese hamster ovary (CHO) K1 cells (Bonhaus, D. et al, Br. J. Pharmacol. 115:622, 1995; Saucier, C. et al, J. Neurochem. 68:1998, 1997) in a 50 mM Tris-HCl buffer, pH 7.4, was used. Compounds of the invention were incubated with 0.5 nM [^3H]Ketanserin for 60 min at 25° C. Non-specific binding was estimated in the presence of 1 μM Mianserin. Receptor proteins were filtered and washed, the filters were then counted to determine [^3H]Ketanserin specifically bound. Compounds were screened at 1 μM or lower, using 1% DMSO as vehicle. Biochemical assay results are presented as the percent inhibition of specific binding in Table 4.

[3] = target: T3, human recombinant serotonin (5-Hydroxytryptamine) 5-HT2C receptor (Homo sapiens, UniProt P28335); assay: Serotonin 5-HT2C radioligand binding ([3H]Mesulergine); conditions: compound at 0.1 μM; CHO K1 cells; read-out: Percentage inhibition of ligand binding, Serotonin 5-HT2C
T3 construct: expressed in transfected cells; host or cells: CHO-K1
T3 sequence (P28335 33-458): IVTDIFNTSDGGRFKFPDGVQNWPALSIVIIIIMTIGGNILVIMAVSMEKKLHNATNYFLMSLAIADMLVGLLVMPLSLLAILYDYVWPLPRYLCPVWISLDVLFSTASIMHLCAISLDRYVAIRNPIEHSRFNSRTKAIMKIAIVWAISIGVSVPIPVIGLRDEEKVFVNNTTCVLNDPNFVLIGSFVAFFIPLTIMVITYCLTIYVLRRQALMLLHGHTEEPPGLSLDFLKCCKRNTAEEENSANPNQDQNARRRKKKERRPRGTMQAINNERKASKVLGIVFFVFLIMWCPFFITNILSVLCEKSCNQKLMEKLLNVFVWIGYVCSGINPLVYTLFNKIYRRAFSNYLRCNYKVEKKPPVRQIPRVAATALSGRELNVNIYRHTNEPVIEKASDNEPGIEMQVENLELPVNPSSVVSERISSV
Procedure: To evaluate in radioligand binding assays the activity of compounds of the invention, human recombinant serotonin (5-Hydroxytryptamine) 5-HT2C receptor expressed in Chinese hamster ovary (CHO) K1 cells (Wolf, W. et al, J. Neurochem. 69:1449, 1997) in a modified Tris-HCl buffer (50 mM Tris-HCl, pH 7.4, 0.1% Ascorbic Acid, 10 μM Pargyline) was used. Compounds of the invention were incubated with 1 nM [^3H]Mesulergine for 60 min at 25° C. Non-specific binding was estimated in the presence of 1 μM Mianserin. Receptor proteins were filtered and washed, the filters were then counted to determine [^3H]Mesulergine specifically bound. Compounds were screened at 1 μM or lower, using 1% DMSO as vehicle. Biochemical assay results are presented as the percent inhibition of specific binding in Table 4.

[4] = target: T4, human recombinant serotonin (5-Hydroxytryptamine) 5-HT5A receptor (Homo sapiens, UniProt P47898); assay: Serotonin 5-HT5A radioligand binding ([3H]LSD); conditions: compound at 0.1 μM; CHO K1 cells; read-out: Percentage inhibition of ligand binding, Serotonin 5-HT5A
T4 construct: expressed in transfected cells; host or cells: CHO-K1
T4 sequence (P47898 whole entry): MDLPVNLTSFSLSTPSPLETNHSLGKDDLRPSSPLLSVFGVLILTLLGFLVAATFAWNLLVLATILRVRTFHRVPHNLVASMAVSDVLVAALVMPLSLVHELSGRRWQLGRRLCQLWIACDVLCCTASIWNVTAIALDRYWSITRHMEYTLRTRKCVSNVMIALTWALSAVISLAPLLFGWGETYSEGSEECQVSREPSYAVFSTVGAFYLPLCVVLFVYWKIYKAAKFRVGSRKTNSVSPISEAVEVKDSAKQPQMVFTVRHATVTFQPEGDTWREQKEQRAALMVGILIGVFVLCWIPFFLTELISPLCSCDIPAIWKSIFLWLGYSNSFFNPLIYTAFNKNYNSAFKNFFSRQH
Procedure: To evaluate in radioligand binding assays the activity of compounds of the invention, human recombinant serotonin (5-Hydroxytryptamine) 5-HT5A receptor expressed in Chinese hamster ovary (CHO) K1 cells (Rees, S. et al, FEBS Lett. 355:242, 1994) in a modified Tris-HCl buffer (50 mM Tris-HCl, pH 7.4, 10 mM MgCl2, 0.5 mM EDTA) was used. Compounds of the invention were incubated with 1.7 nM [^3H]Lysergic acid diethylamide (LSD) for 60 min at 37° C. Non-specific binding was estimated in the presence of 100 μM Serotonin (5-HT). Receptor proteins were filtered and washed, the filters were counted to determine [^3H]LSD specifically bound. Compounds were screened at 1 μM or lower, using 1% DMSO as vehicle. Biochemical assay results are presented as the percent inhibition of specific binding in Table 4.

[5] = target: T5, human recombinant serotonin (5-Hydroxytryptamine) 5-HT6 receptor (Homo sapiens, UniProt P50406); assay: Serotonin 5-HT6 radioligand binding ([3H]LSD); conditions: compound at 0.1 μM; HeLa cells; read-out: Percentage inhibition of ligand binding, Serotonin 5-HT6
T5 construct: expressed in transfected cells; host or cells: HeLa
T5 sequence (P50406 whole entry): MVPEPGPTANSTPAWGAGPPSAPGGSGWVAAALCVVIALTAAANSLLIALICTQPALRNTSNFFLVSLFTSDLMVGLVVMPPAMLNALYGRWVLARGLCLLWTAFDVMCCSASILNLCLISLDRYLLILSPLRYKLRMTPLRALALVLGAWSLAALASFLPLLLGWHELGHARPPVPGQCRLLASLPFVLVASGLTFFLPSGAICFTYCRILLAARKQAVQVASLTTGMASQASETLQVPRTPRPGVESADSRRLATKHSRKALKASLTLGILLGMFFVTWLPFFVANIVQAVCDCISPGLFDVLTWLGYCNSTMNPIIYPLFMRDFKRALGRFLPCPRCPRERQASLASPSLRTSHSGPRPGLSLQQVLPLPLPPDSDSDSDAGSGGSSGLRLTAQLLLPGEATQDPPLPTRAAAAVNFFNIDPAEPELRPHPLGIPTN
Procedure: To evaluate in radioligand binding assays the activity of compounds of the invention, human recombinant serotonin (5-Hydroxytryptamine) 5-HT6 receptor expressed in human HeLa cells (Monsma, F. Jr. et al, Mol. Pharmacol. 43:320, 1993) in a modified Tris-HCl buffer (50 mM Tris-HCl, pH 7.4, 150 mM NaCl, 2 mM Ascorbic Acid, 0.001% BSA) was used. Compounds of the invention were incubated with 1.5 nM [3H]Lysergic acid diethylamide (LSD) for 120 min at 37° C. Non-specific binding was estimated in the presence of 5 μM Serotonin (5-HT). Receptor proteins were filtered and washed, the filters were then counted to determine [3H]LSD specifically bound. Compounds were screened at 1 μM or lower, using 1% DMSO as vehicle. Biochemical assay results are presented as the percent inhibition of specific binding in Table 4.

Row | SMILES | inhibition at 0.1 µM [1] [%] | inhibition at 0.1 µM [2] [%] | inhibition at 0.1 µM [3] [%] | inhibition at 0.1 µM [4] [%] | inhibition at 0.1 µM [5] [%]
1 | Cc1ccc2c(c1)c1c3n2C(c2ccccc2)=CCC3(C)CN(C)C1 (stereo not drawn) [Compound 10, 2,3a,10-trimethyl-6-phenyl-2,3,3a,4-tetrahydro-1H-indolo[3,2,1-ij][1,6]naphthyridine] | 3 | 13 | 17 | -8 | 7
2 | Cc1ccc2c(c1)c1c3n2CC(c2ccncc2)=CCC3(C)CN(C)C1 (stereo not drawn) [Compound 11, 2,3a,10-trimethyl-6-pyridin-4-yl-1,2,3,3a,4,7-hexahydro-2,7a-diaza-cyclohepta[jk]fluorene] | 2 | 10 | 7 | 9 | 5
3 | Cc1ccc2c(c1)c1c3n2C(c2ccccc2)CCC3(C)CN(C)C1 (stereo not drawn) [Compound 12, 2,3a,10-trimethyl-6-phenyl-2,3,3a,4,5,6-hexahydro-1H-indolo[3,2,1-ij][1,6]naphthyridine] | 20 | 12 | 11 | -21 | 21
